Measured values reported in patent publication US20260015409A1, “RECEPTOR-MEDIATED ENDOCYTOSIS FOR TARGETED INTERNALIZATION AND DEGRADATION OF MEMBRANE PROTEINS AND CARGOS” (Dana-Farber Cancer Institute, Inc., priority 2022, published 2026).
Entries after “also recorded” stand apart in the source; their conditions may differ. Where a SMILES comes first, the peptide text is derived from it. The star is where a group is joined. Cbz = O=C(OCc1ccccc1)*

Columns and labels:
[1] = target: T1, EGFR (Homo sapiens, UniProt P00533); assay: EGFR degradation by Western blot in A549 lung carcinoma cells; format: cell-based; conditions: A549 cells treated with EGFR-TransTACs; 1 μM inhibitor
T1 construct: endogenous in cells; host or cells: A549
T1 sequence (P00533 25-1210): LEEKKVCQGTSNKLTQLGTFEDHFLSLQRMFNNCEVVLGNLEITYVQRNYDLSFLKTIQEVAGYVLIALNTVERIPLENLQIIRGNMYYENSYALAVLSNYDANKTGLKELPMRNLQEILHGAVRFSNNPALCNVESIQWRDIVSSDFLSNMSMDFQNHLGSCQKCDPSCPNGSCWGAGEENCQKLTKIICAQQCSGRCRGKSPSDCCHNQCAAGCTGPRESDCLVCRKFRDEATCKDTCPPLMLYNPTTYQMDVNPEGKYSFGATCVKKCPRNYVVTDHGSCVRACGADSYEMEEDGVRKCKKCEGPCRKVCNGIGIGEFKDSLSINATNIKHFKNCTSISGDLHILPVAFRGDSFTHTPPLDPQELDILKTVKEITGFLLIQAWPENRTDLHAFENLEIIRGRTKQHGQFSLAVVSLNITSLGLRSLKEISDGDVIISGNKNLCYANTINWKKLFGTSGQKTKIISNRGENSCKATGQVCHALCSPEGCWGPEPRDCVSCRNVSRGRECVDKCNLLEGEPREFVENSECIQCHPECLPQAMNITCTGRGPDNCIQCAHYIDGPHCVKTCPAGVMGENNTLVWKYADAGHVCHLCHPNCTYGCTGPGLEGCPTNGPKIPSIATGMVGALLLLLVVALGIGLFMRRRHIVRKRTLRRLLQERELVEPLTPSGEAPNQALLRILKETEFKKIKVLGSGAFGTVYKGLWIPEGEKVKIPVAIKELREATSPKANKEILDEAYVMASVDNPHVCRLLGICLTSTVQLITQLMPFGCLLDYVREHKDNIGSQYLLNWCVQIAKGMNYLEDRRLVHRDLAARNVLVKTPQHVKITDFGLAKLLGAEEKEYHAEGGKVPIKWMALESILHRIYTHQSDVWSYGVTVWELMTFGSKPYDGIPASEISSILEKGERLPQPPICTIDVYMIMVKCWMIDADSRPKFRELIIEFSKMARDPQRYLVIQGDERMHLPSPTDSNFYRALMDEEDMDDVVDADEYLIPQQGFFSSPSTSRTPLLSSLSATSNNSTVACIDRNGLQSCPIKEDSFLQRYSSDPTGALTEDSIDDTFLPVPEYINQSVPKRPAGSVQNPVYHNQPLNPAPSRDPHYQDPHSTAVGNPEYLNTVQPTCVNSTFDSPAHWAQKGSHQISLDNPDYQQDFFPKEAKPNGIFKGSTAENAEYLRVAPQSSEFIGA
Experimental: Targeted therapy with tyrosine kinase inhibitors is a standard treatment for lung cancer with EGFR mutations. We reasoned that co-targeting an EGFR and a TfR receptor on lung cancer cells could lead to EGFR inhibition while maintaining high tumor specificity (FIG. 30A). We generated an anti-EGFR affibody*H7*GFLG-VR TransTAC. Incubation of the molecule with a human lung adenocarcinoma A549 cell line led to >90% EGFR degradation (FIG. 30B). […] This specificity results from higher TfR expression in tumor cells (FIG. 27A-C).
Next, we aimed to target epidermal growth factor receptor (EGFR), a receptor tyrosine kinase that plays an important role in the development and progression of various types of cancers such as lung and brain. An affibody (Friedman, Mikaela, et al. “Directed evolution to low nanomolar affinity of a tumor-targeting epidermal growth factor receptor-binding affibody molecule.” Journal of molecular biology 376.5, 2008: 1388-1402) was used to bind EGFR and create an EGFR-TransTAC.
We next investigated the cellular mechanism underlying TransTAC-mediated protein degradation. Two primary pathways involved in the degradation of cellular proteins were tested: the lysosomal pathway and the proteosome pathway. A549 cells were treated either with bafilomycin, a vacuolar proton pump inhibitor that inhibits lysosomal acidification, or MG132, a proteasomal inhibitor.

[2] = target: T2, CD20 (Homo sapiens, UniProt P11836); assay: CD20 degradation in Raji cells; format: cell-based; conditions: Western blot
T2 construct: endogenous in cells; host or cells: Raji
T2 sequence (P11836 1-297): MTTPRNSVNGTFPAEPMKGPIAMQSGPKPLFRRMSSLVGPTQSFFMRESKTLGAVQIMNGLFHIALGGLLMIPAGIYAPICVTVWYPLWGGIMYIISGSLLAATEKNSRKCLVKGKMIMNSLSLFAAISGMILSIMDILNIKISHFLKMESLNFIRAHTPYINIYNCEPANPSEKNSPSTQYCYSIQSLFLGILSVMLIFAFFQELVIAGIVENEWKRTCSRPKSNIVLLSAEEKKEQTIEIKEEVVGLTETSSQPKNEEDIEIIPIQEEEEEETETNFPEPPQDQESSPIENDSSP
Text: Cluster of differentiate 20 (CD20) is a B cell-specific surface marker with four transmembrane domains and an unknown function. Knocking down cell surface CD20s with a degrader can be valuable. A CD20-TransTAC was created using a Fab format of Rituximab, the first clinically approved CD20 antibody, to bind CD20.

[3] = test system: PC9-GR4 cells; assay: MTT cell viability assay, PC9-GR4 cells; format: cell-based
[4] = test system: PC9 GR4 C797S cells; assay: MTT cell viability assay, PC9 GR4 C797S cells

Molecule	effect of inhibitor on TransTAC-mediated EGFR degradation [1]	IC50 [3]	also measured
CC(C)C[C@@H](C=O)NC(=O)[C@H](CC(C)C)NC(=O)[C@H](CC(C)C)NC(=O)OCc1ccccc1 [MG132] (Cbz-Leu-Leu-Leu-aldehyde)	sensitive; also recorded: much less significant effect	–	–
CO/C1=C\C(C)=C\[C@@H](C)[C@@H](O)[C@@H](C)C/C(C)=C/C=C/[C@H](OC)[C@@H]([C@@H](C)[C@@H](O)[C@H](C)[C@@]2(O)C[C@@H](O)[C@H](C)[C@@H](C(C)C)O2)OC1=O [bafilomycin]	sensitive; also recorded: prevented TransTAC-mediated EGFR degradation; also recorded: fully inhibited	–	–
rituximab-scFv-Fc control: rituximab scFv-Fc control without TfR binder	–	–	CD20 degradation [2]: does not lead to significant CD20 degradation
CN(C)C/C=C/C(=O)Nc1cc2c(Nc3ccc(F)c(Cl)c3)ncnc2cc1O[C@H]1CCOC1 [afatinib]	–	168 nM	–
C=CC(=O)Nc1cc(Nc2nccc(-c3cn(C)c4ccccc34)n2)c(OC)cc1N(C)CCN(C)C [osimertinib]	–	207 nM	inhibition of cell viability [4]: did not respond
